This is an account of results in patent publication US20160193162A1 (TIANJIN TAIPU PHARMACEUTICAL SCIENCE & TECHNOLOGY …, priority 2013, published 2016).

Read-outs that look alike come from different tables or passages of the source.

Data set [1] deals with brain nerve cells of an adult rat. The note with it: cited from earlier work.
A short description of data set [2]: powder diffraction of sample tablets after acceleration. The note with it: sample tablets accelerated for two months. The format is physicochemical. The source says:
Chinese patent CN1101704763A recites a preparation method of the I-form crystals. […] Changes in crystal forms, on the one hand may result in infringement, and on the other hand may further lead to inconsistency in bioavailability of drugs. Therefore, it is very important to solve the problem of stability of crystal forms during the processes of the tablet manufacture and preservation.

Data set [3] in a line: stability in the process: crystal form purity (DSC) and relevant substances (HPLC). The data set is classed as physicochemical. The conditions noted are these: stage of the manufacturing process. The text has this: Referring to the aforementioned test 6, tablets were manufactured according to formulation and process with hydroxyproplyl methyl cellulose and polyvinylpyrrolindone k30 in a concentration of 15% as a protective agent.
1) Stability in the process: crystal form purity of the tablets was detected using DSC method with crystal forms and relevant substances as evaluation indexes. Regarding detection of relevant substances, HPLC method was adopted using imported drug as a standard.

Data set [4] can be described thus: test on influencing factors (high temperature, high humidity). The format is physicochemical. How it is done: 2) Test on influencing factors: we investigated in combination with formulations of the present invention: the samples were allowed to stand in an open state for 30 days under the conditions of a high temperature of 60° C., a high humidity of RH 92%, and both high temperature and high humidity (40° C., RH75%), respectively.

The nature of data set [5]: solubility of crystalline I-form agomelatine in solvents. The data set is classed as physicochemical.
Data set [6] can be described thus: I-form crystal purity by DSC of raw material after pulverization, grinding, tabletting. The data set is classed as physicochemical. The source says:
Change of the crystalline I-form raw material in pulverization, grinding, and tabletting (at a pressure of 10 kg) was detected by DSC (see FIGS. 1-4).
For orientation: Differential scanning calorimetry records heat flow against a reference as temperature is scanned.

`COc1ccc2cccc(CCNC(C)=O)c2c1` [Agomelatine, agomelatine]: the “cell proliferation and neuronal regeneration in hippocampal ventral dentate gyrus” value was “no similar situation occurred” in data set [1] (acute or subacute administration (4 hours or nine weeks)); “increase cell proliferation and neuronal regeneration” in data set [1] (long-term (three weeks) administration).
As to `COc1ccc2cccc(CCNC(C)=O)c2c1` [agomelatine], the “crystal form by powder diffraction” value in data set [2] is listed as “almost completely converted to the II form”. In data set [3] (DSC), this compound had a Crystal form purity of 100. Besides, the Relevant substances in data set [3] (HPLC) is 0.32%. Besides, the “Crystal form purity %” value in data set [4] (0 day) is given as 100%; in data set [4] (10 days at a high humidity (RH 92%), open state) it was 80%; in data set [4] (10 days at a high temperature (60° C.), open state), 65%; in data set [4] (10 days at both high temperature and high humidity (40° C., RH75%), open state), 35%. Moreover, the solubility result in data set [5] (in DMSO) was “very soluble”; in data set [5] (in acetonitrile), “very soluble”; in data set [5] (in ethanol) it was “very soluble”; in data set [5] (in methanol) it was “very soluble”; in data set [5] (in water), “almost insoluble”. For the same compound, the “I-form crystal purity (%) detected by DSC” value in data set [6] (after grinding) turned out to be 97.5%; in data set [6] (after pulverization), 90.0%; in data set [6] (after tabletting at a pressure of 10 kg), 74.3%; in data set [6] (raw material, untreated) it was 100%.
